Experimental data published in US10988459B2 (priority 2015, dated 2021).

target: human RIP1 kinase domain (2-375) (Homo sapiens (Human), UniProt Q13546); test: biochemical; format: biochemical; conditions: Table 1; apparent Ki (Morrison tight-binding fit); 50 nM RIP1 kinase domain, 50 uM ATP, 2 hours incubation; read-out: RIP1 Ki
Protocol: Example 794: RIP1 Kinase Inhibition Assays (Biochemical Assay)
The compounds of the present invention were tested for their capacity to inhibit RIP1K activity as described below.
The ability of the receptor interacting protein kinase (RIPK1) to catalyze the hydrolysis of adenosine-5′-triphosphate (ATP) is monitored using the Transcreener ADP (adenosine-5′-diphosphate) assay (BellBrook Labs). Purified human RIP1 kinase domain (2-375) (50 nM) derived from a baculovirus-infected insect cell expression system is incubated with test compounds for 2 hours in 50 mM Hepes buffer (pH 7.5) containing 30 mM MgCl2, 1 mM dithiothreitol, 50 uM ATP, 0.002% Brij-35, and 0.5% dimethyl sulfoxide (DMSO). […] The tracer bound to the antibody is displaced by the ADP generated during the RIP1K reaction, which causes a decrease in fluorescence polarization that is measured by laser excitation at 633 nm with a FP microplate reader M1000. Fractional activity was plotted against test article concentration. Using Genedata Screener software (Genedata; Basel, Switzerland), the data were fit to the tight-binding apparent inhibition constant (Ki^app) Morrison equation [Williams, J. W. and Morrison, J. F. (1979) The kinetics of reversible tight-binding inhibition. Methods Enzymol 63: 437-67]. The following equation was used to calculate fractional activity and Ki^app:
[formula] where [E]T and [I]T are the total concentrations of active enzyme and test article, respectively.
“Method” in the first column of each table refers to the synthetic method(s) used to prepare each compound as shown in the Examples above. In certain examples, chiral column retention times (min) are provided for certain stereoisomers.

human RIP1 kinase domain (2-375), sequence (Q13546 2-375): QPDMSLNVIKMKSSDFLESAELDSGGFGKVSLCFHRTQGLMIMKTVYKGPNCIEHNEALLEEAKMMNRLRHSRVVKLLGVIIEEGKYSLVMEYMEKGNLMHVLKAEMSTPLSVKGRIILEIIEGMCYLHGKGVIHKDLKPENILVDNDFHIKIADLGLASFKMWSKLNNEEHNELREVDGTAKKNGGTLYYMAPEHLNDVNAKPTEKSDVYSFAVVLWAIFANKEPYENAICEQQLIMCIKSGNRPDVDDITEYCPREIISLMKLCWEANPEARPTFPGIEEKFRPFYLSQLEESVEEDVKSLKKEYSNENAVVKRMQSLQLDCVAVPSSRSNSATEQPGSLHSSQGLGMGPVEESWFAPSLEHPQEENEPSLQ

Row | SMILES | Ki
1 | CC1CCc2onc(C(=O)N[C@H]3COc4ccccc4N(C)C3=O)c2C1 (stereo partly drawn) [Example 67, 5-methyl-N-((S)-5-methyl-4-oxo-2,3,4,5-tetrahydrobenzo[b][1,4]oxazepin-3-yl)-4,5,6,7-tetrahydrobenzo[d]isoxazole-3-carboxamide] | 107 nM
2 | CN1C(=O)[C@@H](NC(=O)c2ncc3ccc(C(F)(F)F)cn23)COc2ccccc21 [Example 35, N-[(3S)-5-methyl-4-oxo-2,3-dihydro-1,5-benzoxazepin-3-yl]-6-(trifluoromethyl)imidazo[1,5-a]pyridine-3-carboxamide] | 8.74 nM
3 | CCC1CCc2n[nH]c(C(=O)N[C@H]3COc4ccccc4N(C)C3=O)c2C1 (stereo partly drawn) [Example 74, 5-ethyl-N-((S)-5-methyl-4-oxo-2,3,4,5-tetrahydrobenzo[b][1,4]oxazepin-3-yl)-4,5,6,7-tetrahydro-2H-indazole-3-carboxamide] | 13 nM

same assay, conditions: Table 5; apparent Ki (Morrison tight-binding fit); 50 nM RIP1 kinase domain, 50 uM ATP, 2 hours incubation; read-out: Ki

Row | SMILES | Ki
4 | CC(C)[C@@H]1CCCc2nc(C(=O)N[C@H]3COc4cc(F)cc(F)c4NC3=O)nn21 (single isomer, unassigned) [Example 715] | 5 nM
5 | CN1C(=O)[C@@H](NC(=O)c2nc3n(n2)CCNC3c2ccccc2)COc2ccccc21 (stereo partly drawn) [Example 723, N-[(3S)-5-methyl-4-oxo-2,3-dihydro-1,5-benzoxazepin-3-yl]-8-phenyl-5,6,7,8-tetrahydro-[1,2,4]triazolo[1,5-a]pyrazine-2-carboxamide] | 206 nM

same assay, conditions: human RIP1 kinase domain (2-375), 50 uM ATP, 2 hours incubation, Transcreener ADP assay; read-out: RIP1 Ki

Row | SMILES | Ki
6 | CN1C(=O)[C@@H](NC(=O)c2ncc3c(n2)C(C)(C)SC3)COc2ccccc21 [Example 218, (S)-7,7-dimethyl-N-(5-methyl-4-oxo-2,3,4,5-tetrahydrobenzo[b][1,4]oxazepin-3-yl)-5,7-dihydrothieno[3,4-d]pyrimidine-2-carboxamide] | 25.4 nM
7 | CN1C(=O)C(NC(=O)c2nnc(Cc3ccc(F)cc3)[nH]2)CCCn2nccc21 (stereo not shown) [Example 96, 5-(4-fluorobenzyl)-N-(4-methyl-5-oxo-4,5,6,7,8,9-hexahydropyrazolo[1,5-a][1,3]diazocin-6-yl)-4H-1,2,4-triazole-3-carboxamide] | 801 nM
8 | CN1C(=O)[C@@H](NC(=O)c2cc3c(cn2)CO[C@]32CCOC2)COc2ccccc21 [Example 169, (R)-N-((S)-5-methyl-4-oxo-2,3,4,5-tetrahydrobenzo[b][1,4]oxazepin-3-yl)-4,5-dihydro-2H,3′H-spiro[furan-3,1′-furo[3,4-c]pyridine]-6′-carboxamide] | 19.3 nM
9 | Cc1cc(F)c2c(c1)OC[C@H](NC(=O)c1n[nH]c3c1C[C@H](C(F)(F)F)CC3)C(=O)N2 [Example 89, (R)—N—((S)-6-fluoro-8-methyl-4-oxo-2,3,4,5-tetrahydrobenzo[b][1,4]oxazepin-3-yl)-5-(trifluoromethyl)-4,5,6,7-tetrahydro-1H-indazole-3-carboxamide] | 55.4 nM
10 | Cc1cc(F)c2c(c1)OC[C@H](NC(=O)c1n[nH]c3c1C[C@@H](C(F)(F)F)CC3)C(=O)N2 [Example 88, (S)—N—((S)-6-fluoro-8-methyl-4-oxo-2,3,4,5-tetrahydrobenzo[b][1,4]oxazepin-3-yl)-5-(trifluoromethyl)-4,5,6,7-tetrahydro-1H-indazole-3-carboxamide] | 16.7 nM
11 | CN1C(=O)[C@@H](NC(=O)c2nnc3ccc(C4CC4)cn23)COc2ccccc21 [Example 84, (S)-6-cyclopropyl-N-(5-methyl-4-oxo-2,3,4,5-tetrahydrobenzo[b][1,4]oxazepin-3-yl)-[1,2,4]triazolo[4,3-a]pyridine-3-carboxamide] | 1400 nM
12 | CN1C(=O)[C@@H](NC(=O)c2nnn3c2CC(c2ccccc2)C3)CCn2nccc21 (stereo partly drawn) [Example 121, N—((S)-4-methyl-5-oxo-5,6,7,8-tetrahydro-4H-pyrazolo[1,5-a][1,3]diazepin-6-yl)-5-phenyl-5,6-dihydro-4H-pyrrolo[1,2-c][1,2,3]triazole-3-carboxamide] | 8700 nM

same assay, conditions: human RIP1 kinase domain (2-375), Transcreener ADP assay, 50 uM ATP, 2 hours incubation; read-out: RIP1 Ki

Row | SMILES | Ki
13 | CN1C(=O)C(NC(=O)c2ncn(CC3CC3)n2)CCn2nc(C3CC3)cc21 (stereo not shown) [Example 260, N-(2-cyclopropyl-4-methyl-5-oxo-5,6,7,8-tetrahydro-4H-pyrazolo[1,5-a][1,3]diazepin-6-yl)-1-(cyclopropylmethyl)-1H-1,2,4-triazole-3-carboxamide] | 1900 nM
14 | CN1C(=O)[C@@H](NC(=O)c2nnc(Cc3ccc(F)cc3)[nH]2)CCn2nc(C3CC3)cc21 [Example 332, (S)—N-(2-cyclopropyl-4-methyl-5-oxo-5,6,7,8-tetrahydro-4H-pyrazolo[1,5-a][1,3]diazepin-6-yl)-5-(4-fluorobenzyl)-4H-1,2,4-triazole-3-carboxamide] | 88 nM
15 | CN1C(=O)[C@@H](NC(=O)c2ncn(Cc3cc(F)ccc3F)n2)CCn2nc(C3CC3)cc21 [Example 304, (S)—N-(2-cyclopropyl-4-methyl-5-oxo-5,6,7,8-tetrahydro-4H-pyrazolo[1,5-a][1,3]diazepin-6-yl)-1-(2,5-difluorobenzyl)-1H-1,2,4-triazole-3-carboxamide] | 10.3 nM
16 | CN1C(=O)[C@@H](NC(=O)c2ncn(Cc3ccc(F)cc3)n2)CCn2nc([C@@H]3CC3(F)F)cc21 [Example 323, N—((S)-2-((S)-2,2-difluorocyclopropyl)-4-methyl-5-oxo-5,6,7,8-tetrahydro-4H-pyrazolo[1,5-a][1,3]diazepin-6-yl)-1-(4-fluorobenzyl)-1H-1,2,4-triazole-3-carboxamide] | 57.8 nM
17 | Cc1cccc(Cn2cnc(C(=O)NC3CCn4nc(C5CC5)cc4N(C)C3=O)n2)n1 (stereo not shown) [Example 259, N-(2-cyclopropyl-4-methyl-5-oxo-5,6,7,8-tetrahydro-4H-pyrazolo[1,5-a][1,3]diazepin-6-yl)-1-((6-methylpyridin-2-yl)methyl)-1H-1,2,4-triazole-3-carboxamide] | 789 nM

same assay, conditions: tight-binding apparent inhibition constant; human RIP1 kinase domain (2-375) 50 nM, 50 uM ATP, 2 hours; read-out: Ki

Row | SMILES | Ki
18 | CN1C(=O)[C@@H](NC(=O)c2nnc(Cc3cccc(F)c3F)[nH]2)CCn2nc(C(F)(F)F)cc21 [Example 524] | 72 nM
19 | CN1C(=O)[C@@H](NC(=O)c2ncc3cnn(C4CCCOC4)c3n2)COc2ccccc21 (stereo partly drawn) [Example 563, N-[(3S)-5-methyl-4-oxo-2,3-dihydro-1,5-benzoxazepin-3-yl]-1-tetrahydropyran-3-yl-pyrazolo[3,4-d]pyrimidine-6-carboxamide] | 54 nM
20 | Cc1cc2n(n1)CC[C@H](NC(=O)c1ncc3c(n1)C1(CCCOC1)OC3)C(=O)N2C (stereo partly drawn) [Example 544, N-[(6S)-2,4-dimethyl-5-oxo-7,8-dihydro-6H-pyrazolo[1,5-a][1,3]diazepin-6-yl]spiro[5H-furo[3,4-d]pyrimidine-7,3′-tetrahydropyran]-2-carboxamide] | 1200 nM
21 | CN1C(=O)[C@@H](NC(=O)c2ncn(Cc3ncccc3Cl)n2)CCn2nc(C3CC3)cc21 [Example 658] | 54 nM
22 | Cc1cc(F)c2c(c1)OC[C@H](NC(=O)c1nc3cccc(C(C)C)n3n1)C(=O)N2 [Example 423, (S)—N-(6-fluoro-8-methyl-4-oxo-2,3,4,5-tetrahydrobenzo[b][1,4]oxazepin-3-yl)-5-isopropyl-[1,2,4]triazolo[1,5-a]pyridine-2-carboxamide] | 3.4 nM
23 | Cc1cc2n(n1)CC[C@H](NC(=O)c1ncn(Cc3ccc(Cl)cc3Cl)n1)C(=O)N2C [Example 473, 1-[(2,4-dichlorophenyl)methyl]-N-[(6S)-2,4-dimethyl-5-oxo-7,8-dihydro-6H-pyrazolo[1,5-a][1,3]diazepin-6-yl]-1,2,4-triazole-3-carboxamide] | 7.8 nM
24 | Cc1cc2n(n1)CC[C@H](NC(=O)c1ncc3c(n1)[C@@](C)(CC(F)(F)F)OC3)C(=O)N2C (racemic) [Example 686, rac-(7R)-7-methyl-N-[rac-(6S)-2,4-dimethyl-5-oxo-7,8-dihydro-6H-pyrazolo[1,5-a][1,3]diazepin-6-yl]-7-(2,2,2-trifluoroethyl)-5H-furo[3,4-d]pyrimidine-2-carboxamide] | 1100 nM
25 | Cc1cn2c(n1)N(C)C(=O)[C@H](NC(=O)c1ncn(Cc3ccccc3)n1)CC2 (racemic) [Example 693, 1-benzyl-N-[rac-(7R)-2,9-dimethyl-8-oxo-6,7-dihydro-5H-imidazo[1,2-a][1,3]diazepin-7-yl]-1,2,4-triazole-3-carboxamide] | 30.5 nM
26 | CN1C(=O)[C@@H](NC(=O)c2ncc3c(n2)C2(CCOCC2)OC3)COc2ccccc21 [Example 510] | 330 nM
27 | CN1C(=O)[C@@H](NC(=O)c2ncn(Cc3cc(F)ccc3F)n2)CCn2ccnc21 [Example 506, 1-[(2,5-difluorophenyl)methyl]-N-[(7S)-9-methyl-8-oxo-6,7-dihydro-5H-imidazo[1,2-a][1,3]diazepin-7-yl]-1,2,4-triazole-3-carboxamide] | 19 nM
28 | CN1C(=O)[C@@H](NC(=O)c2nc3n(n2)[C@@H](c2ccccc2)CC3)COc2ccccc21 [Example 623, (5R)-5-phenyl-N-[(3S)-5-methyl-4-oxo-2,3-dihydro-1,5-benzoxazepin-3-yl]-6,7-dihydro-5H-pyrrolo[1,2-b][1,2,4]triazole-2-carboxamide] | 3.4 nM
